Series [1] can be described thus: Pharmacokinetics after i.v. administration. It is filed as in vivo, Wistar rats. The conditions noted are these: for Vd: read-out: Vdss. The procedure:
For administration to Wistar rats, LAP was dissolved in DMSO:Tween 80:glucose 5% in a proportion of 15:5:80 (v/v/v), resulting in a solution of 1 mg/ml (for intravenous (i.v.) administration) and another of 5 mg/ml (for oral administration). LAP was administered to rats as an i.v. bolus dose at 2 mg/kg (n = 7) and at two oral doses of 10 (n = 8) and 25 mg/kg (n = 6). LAP salt was administered as i.v. (2 mg/kg, n = 6) and oral doses (30 mg/kg equivalent to 27.5 mg/kg of LAP, n = 8). The i.v. doses were injected into the lateral tail vein, and oral doses were given by gavage. The doses were chosen based on previous toxicological and pharmacodynamic studies. At predetermined time points (30 min before dosing and at 0.08, 0.25, 0.5, 1, 2, 4, 6, 8, 12, and 24 h) after LAP i.v. administration, blood samples (200–250 μl) were withdrawn into heparinized tubes via puncture of the lateral tail vein, opposite to the vein used for drug dosing. The same procedure was carried out after oral administration of LAP, with blood sampling at 0.25, 0.5, 1, 1.5, 2, 3, 6, 12, 24, and 30 h. After LAP sodium salt i.v. and oral dosing, blood samples were harvested up to 10 and 12 h, respectively. Plasma was obtained by centrifugation of blood samples (6800 × g, at 4 °C for 10 min) and stored at –80 °C until analysis by UPLC-MS/MS.
LAP and LAP sodium salt pharmacokinetic parameters after i.v. and oral administration were determined from individual plasma profiles by a noncompartmental approach (NCA). The peak plasma concentration (Cmax) and the time of maximum concentration (Tmax) were obtained by visual inspection of the data from the plasma concentration–time curve after oral dosing. Pharmacokinetic parameters such an elimination rate constant (λ), area under the curve (AUC0–∞), clearance (CLtot), half-life (t1/2), volume of distribution (Vdss), mean residence time (MRT), and bioavailability (Fabs) were determined using classical equations. The compartmental analyses were performed using SCIENTIST v.2.0.1 software (MicroMath®, USA). One- and two-compartment models with or without weighting schemes were evaluated. The best model to fit the data was chosen based on the random distribution of residuals, the correlation coefficient, and the model selection criterion (MSC) given by the software.
The individual plasma profiles of LAP and LAP sodium salt after i.v. administration were best described by a two-compartmental open model. Plasma profiles after oral administration with two different doses of LAP and one dose of LAP sodium salt were best described by the one-compartmental model.
LAP concentration in plasma samples was determined by a validated (FDA, US Food and Drug Administration, 2001) UPLC-MS/MS method. Analyses were run on an Acquity UPLC BEH (Waters Acquity™) C18 column (2.1 × 50 mm, 1.7 μm particle size), with a flow of 300 μl/min at 35 °C. A gradient constituted of water (A) and acetonitrile (B) acidified with 0.1% acetic acid was used as follows: 0 min (90% A), 1 min (75% A), 7 min (50% A), 8.5 min (0% A) and 9.5 min (100% A). For the triple quadrupole, MS parameters were set as follows: capillary voltage (2.20 kV); extractor (3.0 V) source temperature (150 °C), desolvation temperature (300 °C), cone gas flow (50 l/h), and desolvation gas flow (700 l/h). For quantification, a multiple reaction monitoring method (MRM) was applied. For LAP, the transition of m/z 243 > 187 using cone energy of 24 V and collision energy of 19 V was determined as most appropriate for quantification (Calibration curves between 1 and 20,000 ng/ml of LAP, R > 0.99, low quantification limit of 1 ng/ml, and detection limit of 0.1 ng/ml).
A total of 200 μl cold acetonitrile containing internal standard (2-methyl-amino-lapachol) at 5 μg/ml and 0.05% trifluoroacetic acid was added to 100 μl of plasma and vortexed for 20 s. Precipitated protein was removed by centrifugation (6800 × g at 4 °C for 10 min). […]

Series [2] relates to collagen-induced arthritis (CIA) in DBA1/J mice. The series can be described thus: Collagen-induced arthritis (CIA). It counts as in vivo. The procedure: Male DBA/1 J mice were injected i.d. at the base of the tail with 200 μg bovine type II collagen (CII; a gift from Dr. David D. Brand, University of Tennessee Health Science Center) emulsified in Freund’s complete adjuvant (CFA) on day 0. Mice were boosted i.d. with CII (200 μg emulsified in Freund’s incomplete adjuvant (IFA)) on day 21. Mice were monitored daily for signs of arthritis. Scores were assigned based on erythema, swelling, or ankylosis present in each paw on a scale of 0 to 3, giving a maximum score of 12 per mouse. After arthritis induction, mice were treated orally with LAP (3 mg/kg and 10 mg/kg) or LEF (3 mg/kg) or saline daily. The clinical score was addressed every day after collagen boost. All mice were euthanized for histologic assessment of the hind limbs 4 weeks after the boost.
Femur-tibial joints were collected 4 weeks after CII boost, fixed in 4% (vol/vol) buffered formalin and decalcified in 10% EDTA for 2–3 weeks. The tissues were then trimmed, dehydrated in ethanol, and embedded in paraffin for the preparation of the slides. Histological assessment was carried out following routine staining. Joint sections were stained with hematoxylin and eosin (H&E) to analyze synovitis (inflammatory cell influx and synovial hyperplasia) or Safranin-O to visualize proteoglycan depletion and cartilage destruction. The severity of the joint damage was scored according to the criteria described by Wang et al.: 0 = no destruction; 1 = minimal erosion; 2 = slight to moderate erosion in a limited area; 3 = more extensive erosion; 4 = general destruction.
Interleukin (IL)-17 and interferon (IFN)-γ cytokines were measured by enzyme-linked immunosorbent assay (ELISA) from hind paw homogenate of an individual mouse using antibodies according to the manufacturer’s instructions (R&D Systems, Minneapolis, MN, USA). The results were expressed as pg of cytokine/mg of tissue.
Myeloperoxidase (MPO) activity in tissue homogenates was used as an index of neutrophil infiltration into paws from CIA mice as previously described.

The mark [3] stands for this setting: Wistar, rat, plasma, iv, 2 mg/kg, 2 mg/kg i.v., 2-Comp.
Where [4] appears, read: Wistar, rat, plasma, iv, 2 mg/kg, 2 mg/kg i.v., NCA.

Like-named read-outs stand apart in the source and are kept apart here.

In series [1] (2 mg/kg i.v., 2-Comp), `CC(C)=CCC1=C(O)C(=O)c2ccccc2C1=O` [LAP, 2-hydroxy-3-(3methyl-2-butenyl)-1,4-naphthoquinone] registered a CLtot of 0.667 ± 0.167 mL/min/kg, a Vc of 0.11 ± 0.03 L/kg, an a of 10.0 ± 4.1 µg/mL and a b of 8.8 ± 3.1 µg/mL. In series [1] (2 mg/kg i.v., 2-Comp), this molecule displayed a t1/2ß of 3.7 ± 0.5 h, a t1/2α of 0.6 ± 0.4 h, a ß of 0.19 ± 0.03 h⁻¹ and a α of 1.76 ± 1.52 h⁻¹. Further, in series [1] (2 mg/kg i.v., NCA), the CLtot stood at 0.667 ± 0.167 mL/min/kg and the λ is 0.18 ± 0.04 h⁻¹. Further, in series [1] (setting [3]), the AUC(0-inf) was determined as 56400 ± 21600 ng·h/mL and the Vd was 0.17 ± 0.03 L/kg. For the same molecule, in series [1] (setting [4]), the AUC(0-inf) is 56100 ± 20100 ng·h/mL, the MRT was found to be 5.3 ± 1.2 h and the Vd came to 0.19 ± 0.03 L/kg. Besides, the half-life in series [1] (Wistar, rat, plasma, iv, 2 mg/kg, 2 mg/kg i.v., NCA, read-out: t1/2 (converted)) is 4.1 ± 1.1 h. Further, the linearity of pharmacokinetics result in series [1] (dose range investigated 2–25 mg/kg (i.v. and oral)) is “Linear pharmacokinetics”. This molecule also came in with a total clearance in series [1] (intravenous administration, rats) of 0.67 ± 0.17 mL/min/kg. Besides, the “severity of arthritis (clinical score and number of affected paws)” value in series [2] (3 mg/kg and 10 mg/kg orally daily, both doses) is “markedly attenuated the severity of arthritis”. Moreover, the “IL-17A levels in hind paws” value in series [2] (dose of 10 mg/kg orally daily, 4 weeks after boost, ELISA) was “significant reduction in IL-17A levels”. In addition, in series [2] (orally daily, 4 weeks after boost, vs vehicle-treated CIA mice), the “MPO activity in hind paws (neutrophil infiltration)” value was “reduced MPO activity”. In series [2] (orally daily, 4 weeks after boost, vs vehicle-treated group), the “histopathological features of arthritis severity (H&E, Safranin-O, knee joint)” value is reported as “markedly reduced all histopathological features of arthritis severity”.

(Values after article PMC5341405, “Lapachol, a compound targeting pyrimidine metabolism, ameliorates experimental autoimmune arthritis” (Arthritis Research & Therapy, 2017).)
